# In PubChem BioAssay (NCI):
# “And” between values parts separate entries of the source, which are not always exact repeats. Equal entries are not always repeated.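 Assay format: 96-well plates, 48-hour exposure. GI50 marks 50% less growth. TGI: total growth inhibition.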
# Columns and labels:
# Test in all cases: NCI-60 cell line screen, 48 h
# K-562 leukemia = tested on: K-562 leukemia
# HOP-62 NSCLC = tested on: HOP-62 NSCLC
# NCI-H23 lung = tested on: NCI-H23 lung
# HOP-92 NSCLC = tested on: HOP-92 NSCLC
# SF-268 CNS = tested on: SF-268 CNS
# LOX IMVI melanoma = tested on: LOX IMVI melanoma
# MDA-MB-435 = tested on: MDA-MB-435
# SK-OV-3 ovarian = tested on: SK-OV-3 ovarian
# SK-MEL-2 melanoma = tested on: SK-MEL-2 melanoma
# T-47D breast = tested on: T-47D breast
# UACC-62 melanoma = tested on: UACC-62 melanoma
# TK-10 renal = tested on: TK-10 renal
# KM12 colon = tested on: KM12 colon
# 786-0 renal = tested on: 786-0 renal
# RPMI-8226 leukemia = tested on: RPMI-8226 leukemia
# HT29 colon = tested on: HT29 colon
# A549 NSCLC = tested on: A549 NSCLC
# A498 renal = tested on: A498 renal
# OVCAR-3 ovarian = tested on: OVCAR-3 ovarian
# CAKI-1 renal = tested on: CAKI-1 renal
# M14 melanoma = tested on: M14 melanoma
# U251 CNS = tested on: U251 CNS
# OVCAR-8 ovarian = tested on: OVCAR-8 ovarian
# SK-MEL-28 melanoma = tested on: SK-MEL-28 melanoma
# MCF7 breast = tested on: MCF7 breast
# SW-620 colon = tested on: SW-620 colon
# OVCAR-5 ovarian = tested on: OVCAR-5 ovarian
# UO-31 renal = tested on: UO-31 renal
# CCRF-CEM leukemia = tested on: CCRF-CEM leukemia
# NCI/ADR-RES ovarian = tested on: NCI/ADR-RES ovarian
# SN12C renal = tested on: SN12C renal
# SNB-75 CNS = tested on: SNB-75 CNS
# SF-295 CNS = tested on: SF-295 CNS
# HCT-15 colon = tested on: HCT-15 colon
# SNB-19 CNS = tested on: SNB-19 CNS
# COLO 205 colon = tested on: COLO 205 colon
# HL-60(TB) leukemia = tested on: HL-60(TB) leukemia
# NCI-H522 lung = tested on: NCI-H522 lung
# PC-3 prostate = tested on: PC-3 prostate
# MOLT-4 leukemia = tested on: MOLT-4 leukemia
# NCI-H226 lung = tested on: NCI-H226 lung
# SR leukemia = tested on: SR leukemia
# HS 578T breast = tested on: HS 578T breast
# SF-539 CNS = tested on: SF-539 CNS
# EKVX NSCLC = tested on: EKVX NSCLC
# MDA-MB-231 breast = tested on: MDA-MB-231 breast
# MALME-3M melanoma = tested on: MALME-3M melanoma
# NCI-H460 lung = tested on: NCI-H460 lung
# ACHN renal = tested on: ACHN renal
# UACC-257 melanoma = tested on: UACC-257 melanoma
# RXF 393 renal = tested on: RXF 393 renal
# OVCAR-4 ovarian = tested on: OVCAR-4 ovarian
# SK-MEL-5 melanoma = tested on: SK-MEL-5 melanoma
# BT-549 breast = tested on: BT-549 breast
# HCT-116 colon = tested on: HCT-116 colon
# HCC-2998 colon = tested on: HCC-2998 colon
# DU-145 prostate = tested on: DU-145 prostate
# IGROV1 ovarian = tested on: IGROV1 ovarian
# MDA-N = tested on: MDA-N
smiles,measurement,setting,value
CN1CCN(c2nc(C3=C(c4c[nH]c5ccccc45)C(=O)NC3=O)c3ccccc3n2)CC1,GI50,K-562 leukemia,11.9 µM and 12.6 µM
same,TGI,K-562 leukemia,65 µM and 49.2 µM
same,GI50,HOP-62 NSCLC,13.6 µM and 19.8 µM
same,TGI,HOP-62 NSCLC,65 µM and 42.9 µM
same,GI50,NCI-H23 lung,14.8 µM and 17.6 µM
same,TGI,NCI-H23 lung,39.9 µM and 41.4 µM
same,GI50,HOP-92 NSCLC,30.5 µM and 4.23 µM
same,TGI,HOP-92 NSCLC,65 µM and 17.4 µM
same,GI50,SF-268 CNS,17.2 µM and 17.7 µM
same,TGI,SF-268 CNS,40.6 µM and 36.6 µM
same,GI50,LOX IMVI melanoma,13.1 µM and 17.3 µM
same,TGI,LOX IMVI melanoma,24.5 µM and 36.4 µM
same,GI50,MDA-MB-435,9.08 µM and 12.4 µM
same,TGI,MDA-MB-435,19.4 µM and 26.1 µM
same,GI50,SK-OV-3 ovarian,19.5 µM and 16.2 µM
same,TGI,SK-OV-3 ovarian,65 µM and 45.9 µM
same,GI50,SK-MEL-2 melanoma,12.8 µM and 20.2 µM
same,TGI,SK-MEL-2 melanoma,25.8 µM and 38.8 µM
same,GI50,T-47D breast,15.6 µM and 26.3 µM
same,TGI,T-47D breast,53.4 µM and 82.4 µM
same,GI50,UACC-62 melanoma,14.4 µM and 16.2 µM
same,TGI,UACC-62 melanoma,35.2 µM and 30.7 µM
same,GI50,TK-10 renal,27.9 µM and 17.5 µM
same,TGI,TK-10 renal,65 µM and 49 µM
same,GI50,KM12 colon,4.43 µM and 4.8 µM
same,TGI,KM12 colon,65 µM and 24.3 µM
same,GI50,786-0 renal,15.7 µM and 18.3 µM
same,TGI,786-0 renal,39.6 µM and 36.9 µM
same,GI50,RPMI-8226 leukemia,12.6 µM
same,TGI,RPMI-8226 leukemia,37.6 µM
same,GI50,HT29 colon,14 µM and 12.3 µM
same,TGI,HT29 colon,65 µM and 43.4 µM
same,GI50,A549 NSCLC,21.2 µM and 18.4 µM
same,TGI,A549 NSCLC,65 µM and 48.9 µM
same,GI50,A498 renal,12.9 µM and 15.4 µM
same,TGI,A498 renal,24.3 µM and 29.7 µM
same,GI50,OVCAR-3 ovarian,16.2 µM and 19.4 µM
same,TGI,OVCAR-3 ovarian,44.8 µM and 41.6 µM
same,GI50,CAKI-1 renal,9.47 µM and 16.9 µM
same,TGI,CAKI-1 renal,54.5 µM and 46.1 µM
same,GI50,M14 melanoma,10.5 µM and 17 µM
same,TGI,M14 melanoma,20.5 µM and 37.6 µM
same,GI50,U251 CNS,22.5 µM and 13.4 µM
same,TGI,U251 CNS,65 µM and 27.7 µM
same,GI50,OVCAR-8 ovarian,17.2 µM and 18.4 µM
same,TGI,OVCAR-8 ovarian,65 µM and 57.5 µM
same,GI50,SK-MEL-28 melanoma,11.2 µM and 17.7 µM
same,TGI,SK-MEL-28 melanoma,20.8 µM and 32.8 µM
same,GI50,MCF7 breast,10.1 µM and 16.6 µM
same,TGI,MCF7 breast,27.9 µM and 40 µM
same,GI50,SW-620 colon,19.8 µM and 19.1 µM
same,TGI,SW-620 colon,65 µM and 35.9 µM
same,GI50,OVCAR-5 ovarian,28.7 µM and 34.5 µM
same,TGI,OVCAR-5 ovarian,65 µM and > 100 µM
same,GI50,UO-31 renal,8.2 µM and 11.7 µM
same,TGI,UO-31 renal,65 µM and 30.1 µM
same,GI50,CCRF-CEM leukemia,28.9 µM and 14 µM
same,TGI,CCRF-CEM leukemia,65 µM and 62.8 µM
same,GI50,NCI/ADR-RES ovarian,25.4 µM
same,TGI,NCI/ADR-RES ovarian,65 µM
same,GI50,SN12C renal,9.03 µM and 12.9 µM
same,TGI,SN12C renal,28.5 µM and 35.5 µM
same,GI50,SNB-75 CNS,4.91 µM and 5.65 µM
same,TGI,SNB-75 CNS,17.5 µM and 21.6 µM
same,GI50,SF-295 CNS,12.2 µM and 19.6 µM
same,TGI,SF-295 CNS,25.9 µM and 37.8 µM
same,GI50,HCT-15 colon,12.9 µM and 19.5 µM
same,TGI,HCT-15 colon,60.2 µM and > 100 µM
same,GI50,SNB-19 CNS,27.2 µM and 23.3 µM
same,TGI,SNB-19 CNS,65 µM and 49.2 µM
same,GI50,COLO 205 colon,8 µM and 11.4 µM
same,TGI,COLO 205 colon,17.3 µM and 24.5 µM
same,GI50,HL-60(TB) leukemia,12.3 µM and 15.1 µM
same,TGI,HL-60(TB) leukemia,36.6 µM and 35.6 µM
same,GI50,NCI-H522 lung,11.3 µM and 15.1 µM
same,TGI,NCI-H522 lung,23.7 µM and 32.9 µM
same,GI50,PC-3 prostate,27.2 µM and 18.3 µM
same,TGI,PC-3 prostate,65 µM and 43.6 µM
same,GI50,MOLT-4 leukemia,7.61 µM and 10.2 µM
same,TGI,MOLT-4 leukemia,35.9 µM and 54.8 µM
same,GI50,NCI-H226 lung,12.4 µM and 28.3 µM
same,TGI,NCI-H226 lung,37.9 µM and 75.3 µM
same,GI50,SR leukemia,11.6 µM
same,TGI,SR leukemia,36.2 µM
same,GI50,HS 578T breast,9.01 µM and 14.6 µM
same,TGI,HS 578T breast,27 µM and 38.3 µM
same,GI50,SF-539 CNS,10.5 µM and 16.8 µM
same,TGI,SF-539 CNS,19.7 µM and 32.9 µM
same,GI50,EKVX NSCLC,20.4 µM
same,TGI,EKVX NSCLC,65 µM
same,GI50,MDA-MB-231 breast,22.2 µM and 17.3 µM
same,TGI,MDA-MB-231 breast,60.6 µM and 39.4 µM
same,GI50,MALME-3M melanoma,10 µM and 10.2 µM
same,TGI,MALME-3M melanoma,19.9 µM and 24.3 µM
same,GI50,NCI-H460 lung,15.2 µM and 19.2 µM
same,TGI,NCI-H460 lung,33.4 µM and 35.9 µM
same,GI50,ACHN renal,14.9 µM and 20.4 µM
same,TGI,ACHN renal,52.4 µM and > 100 µM
same,GI50,UACC-257 melanoma,11.2 µM and 15.7 µM
same,TGI,UACC-257 melanoma,23.1 µM and 31.3 µM
same,GI50,RXF 393 renal,12.8 µM and 16.3 µM
same,TGI,RXF 393 renal,22.6 µM and 31.2 µM
same,GI50,OVCAR-4 ovarian,18.9 µM and 16.2 µM
same,TGI,OVCAR-4 ovarian,65 µM and 69.1 µM
same,GI50,SK-MEL-5 melanoma,11.2 µM and 12.6 µM
same,TGI,SK-MEL-5 melanoma,20.3 µM and 26 µM
same,GI50,BT-549 breast,8.91 µM and 14.3 µM
same,TGI,BT-549 breast,20.8 µM and 29.3 µM
same,GI50,HCT-116 colon,10.3 µM and 9.78 µM
same,TGI,HCT-116 colon,31.9 µM and 37.9 µM
same,GI50,HCC-2998 colon,11.2 µM and 19 µM
same,TGI,HCC-2998 colon,22.6 µM and 36.7 µM
same,GI50,DU-145 prostate,23.3 µM and 17.9 µM
same,TGI,DU-145 prostate,65 µM and 38 µM
same,GI50,IGROV1 ovarian,21.4 µM and 21 µM
same,TGI,IGROV1 ovarian,65 µM and 41.3 µM
O=C(O)c1cc(/C=C/c2ccc(O)c(O)c2)ccc1O,TGI,K-562 leukemia,44.9 µM
same,TGI,HOP-62 NSCLC,> 100 µM
same,TGI,NCI-H23 lung,> 100 µM
same,TGI,HOP-92 NSCLC,> 100 µM
same,TGI,SF-268 CNS,> 100 µM
same,TGI,LOX IMVI melanoma,> 100 µM
same,TGI,MDA-MB-435,> 100 µM
same,TGI,SK-OV-3 ovarian,> 100 µM
same,TGI,SK-MEL-2 melanoma,> 100 µM
same,TGI,T-47D breast,> 100 µM
same,TGI,UACC-62 melanoma,> 100 µM
same,TGI,TK-10 renal,> 100 µM
same,TGI,KM12 colon,> 100 µM
same,TGI,786-0 renal,> 100 µM
same,TGI,RPMI-8226 leukemia,> 100 µM
same,TGI,MDA-N,> 100 µM
same,TGI,HT29 colon,> 100 µM
same,TGI,A549 NSCLC,> 100 µM
same,TGI,OVCAR-3 ovarian,> 100 µM
same,TGI,CAKI-1 renal,> 100 µM
same,TGI,M14 melanoma,> 100 µM
same,TGI,U251 CNS,> 100 µM
same,TGI,OVCAR-8 ovarian,> 100 µM
same,TGI,SK-MEL-28 melanoma,> 100 µM
same,TGI,MCF7 breast,51.4 µM
same,TGI,OVCAR-5 ovarian,> 100 µM
same,TGI,UO-31 renal,> 100 µM
same,TGI,CCRF-CEM leukemia,82.1 µM
same,TGI,NCI/ADR-RES ovarian,> 100 µM
same,TGI,SN12C renal,> 100 µM
same,TGI,SNB-75 CNS,> 100 µM
same,TGI,SF-295 CNS,> 100 µM
same,TGI,HCT-15 colon,> 100 µM
same,TGI,SNB-19 CNS,> 100 µM
same,TGI,COLO 205 colon,> 100 µM
same,TGI,HL-60(TB) leukemia,> 100 µM
same,TGI,NCI-H522 lung,> 100 µM
same,TGI,PC-3 prostate,> 100 µM
same,TGI,MOLT-4 leukemia,> 100 µM
same,TGI,NCI-H226 lung,> 100 µM
same,TGI,SR leukemia,> 100 µM
same,TGI,HS 578T breast,> 100 µM
same,TGI,SF-539 CNS,> 100 µM
same,TGI,EKVX NSCLC,> 100 µM
same,TGI,MDA-MB-231 breast,> 100 µM
same,TGI,MALME-3M melanoma,> 100 µM
same,TGI,NCI-H460 lung,> 100 µM
same,TGI,ACHN renal,> 100 µM
same,TGI,UACC-257 melanoma,> 100 µM
same,TGI,RXF 393 renal,> 100 µM
same,TGI,OVCAR-4 ovarian,> 100 µM
same,TGI,SK-MEL-5 melanoma,> 100 µM
same,TGI,HCT-116 colon,> 100 µM
same,TGI,HCC-2998 colon,> 100 µM
same,TGI,DU-145 prostate,> 100 µM
same,TGI,IGROV1 ovarian,> 100 µM
